The values that follow come from patent US20240409585A1, “MACROCYCLIC IMMUNOMODULATORS” (priority 2021, published 2024).

Numbered stars: 1 amine (or outer) side, 2 acyl side, 3 side chain; on linkers, the order of the positions; unused ones are H or OH. Bridge positions count the residues as written; N and C are the ends. Square brackets hold non-standard residues; d marks the D form. Peptide text beside a SMILES is read from it. * marks the point of attachment. ξ: configuration not given here. Bip(3'-COOH) = N[C@@H](Cc1ccc(-c2cccc(C(=O)O)c2)cc1)C(=O)O; X21 = CN(C)P(=O)(Oc1ccc(C[C@H](N[*:1])C(=O)[*:2])cc1)N(C)C; Phe(4-COOH) = N[C@@H](Cc1ccc(C(=O)O)cc1)C(=O)O; Bip = N[C@@H](Cc1ccc(-c2ccccc2)cc1)C(=O)O; Phe(3-OMe) = COc1cccc(C[C@H](N)C(=O)O)c1; Phe(3-Me) = Cc1cccc(C[C@H](N)C(=O)O)c1; hPhe = N[C@@H](CCc1ccccc1)C(=O)O; 3Pal = N[C@@H](Cc1cccnc1)C(=O)O; 4Pal = N[C@@H](Cc1ccncc1)C(=O)O; Cha = N[C@@H](CC1CCCCC1)C(=O)O; Ile(3ξ) = CCC(C)[C@H](N)C(=O)O; Thr(3ξ) = CC(O)[C@H](N)C(=O)O; ξCha = NC(CC1CCCCC1)C(=O)O; Carboxymethyl = O=C(O)C*; NMeA = CN[C@@H](C)C(=O)O; Orn = NCCC[C@H](N)C(=O)O; Dab = NCC[C@H](N)C(=O)O; Dap = NC[C@H](N)C(=O)O; ξC = NC(CS)C(=O)O

T1 sequence (Q15116 25-288): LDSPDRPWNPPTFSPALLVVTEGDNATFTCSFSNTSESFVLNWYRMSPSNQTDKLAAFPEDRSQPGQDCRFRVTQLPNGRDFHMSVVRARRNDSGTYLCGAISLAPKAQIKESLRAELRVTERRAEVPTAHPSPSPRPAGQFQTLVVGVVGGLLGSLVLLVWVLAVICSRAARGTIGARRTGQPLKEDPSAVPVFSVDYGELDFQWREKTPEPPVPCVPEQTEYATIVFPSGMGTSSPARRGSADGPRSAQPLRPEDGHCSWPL

The first assay concerns the target T1, PE-labeled human PD-L1-Ig binding to Jurkat cell line over-expressing human PD-1 (Jurkat-PD-1) (Homo sapiens, UniProt Q15116).
T1 construct: expressed in transfected cells; host or cells: Jurkat
As to the kind of experiment: Jurkat-PD-1 Cell Binding High-Content Screening Assay (CBA): Method 1. Particulars: Jurkat HPDL1 PD1 IC50 (uM) (Method 1), Jurkat-hPD-1 cells, PE-labeled PD-L1-Ig 20 nM final.
`CC(C)C[C@@H]1NC(=O)[C@H](Cc2c[nH]c3ccccc23)NC(=O)[C@H](CC(=O)O)NC(=O)[C@H](Cc2ccc(OP(=O)(N(C)C)N(C)C)cc2)NC(=O)[C@H](Cc2ccccc2)NC(=O)CSC[C@@H](C(=O)N[C@@H](C)C(N)=O)NC(=O)[C@H](CO)NC(=O)[C@H](C(C)C)NC(=O)[C@H](CC(C)C)NC(=O)[C@H](CC(N)=O)NC(=O)[C@@H](C)NC(=O)[C@H](C)N(C)C(=O)[C@H](C(C)C)NC(=O)[C@H](Cc2ccc(-c3ccccc3)cc2)NC1=O` [Compound 1764] ({CH2CO}-F[X21]DWL[Bip]V[NMeA][dA]NLVSCA-NH2; thioether N-14) showed a half-inhibitory concentration (IC50) of 0.04 µM.
In turn, `Cc1cccc(C[C@@H]2NC(=O)[C@H](CC(=O)O)NC(=O)[C@H](Cc3ccc(OCC(=O)O)cc3)NC(=O)[C@H](CN)NC(=O)CSC[C@@H](C(=O)N[C@@H](C)C(N)=O)NC(=O)[C@H](CO)NC(=O)[C@H](Cc3ccccc3)NC(=O)[C@H](CC(C)C)NC(=O)[C@H](CC(N)=O)NC(=O)[C@@H](CC(C)C)NC(=O)[C@H](C)N(C)C(=O)[C@H](Cc3ccccc3)NC(=O)[C@H](Cc3ccc(-c4ccccc4)cc3)NC(=O)[C@H](CC(C)C)NC2=O)c1` [Compound 1586] ({CH2CO}-[Dap]Y(Carboxymethyl)D[Phe(3-Me)]L[Bip]F[NMeA][dL]NLFSCA-NH2; thioether N-14) displayed an IC50 of 0.54 µM.

The assay is the same for the next values; noted with them: Jurkat-hPD-1 cells, PE-labeled PD-L1-Ig 20 nM final; read-out: Jurkat HPDL1 PD1 IC50 (uM) (Method 1).
As to `CC(C)C[C@@H]1NC(=O)[C@H](Cc2c[nH]c3ccccc23)NC(=O)[C@H](CC(=O)O)NC(=O)[C@H](Cc2ccncc2)NC(=O)[C@H](Cc2ccc(OCC(=O)O)cc2)NC(=O)CSC[C@@H](C(=O)N[C@H](CC(N)=O)C(N)=O)NC(=O)[C@H](CO)NC(=O)[C@H](C(C)C)NC(=O)[C@H](CC2CCCCC2)NC(=O)[C@H](CCN)NC(=O)[C@@H](CC(C)C)NC(=O)[C@H](C)N(C)C(=O)[C@H](Cc2ccc(O)cc2)NC(=O)[C@H](Cc2ccc(-c3ccccc3)cc2)NC1=O` [Compound 1907] ({CH2CO}-Y(Carboxymethyl)[4Pal]DWL[Bip]Y[NMeA][dL][Dab][Cha]VSC[dN]-NH2; thioether N-14), the 50% inhibitory concentration (IC50) came to 0.12 µM.
For the molecule `COc1cccc(C[C@@H]2NC(=O)[C@H](Cc3cccnc3)NC(=O)CSCC(C(=O)N[C@@H](CN)C(=O)O)NC(=O)[C@H](CO)NC(=O)[C@H](C(C)C)NC(=O)[C@H](CC(C)C)NC(=O)[C@H](CC(N)=O)NC(=O)[C@@H](CC(C)C)NC(=O)[C@H](C)N(C)C(=O)[C@H](C(C)C)NC(=O)[C@H](Cc3ccc(-c4ccccc4)cc3)NC(=O)[C@H](C(C)C)NC(=O)[C@H](Cc3c[nH]c4ccccc34)NC(=O)[C@H](CC(=O)O)NC2=O)c1` (stereo partly drawn) [Compound 2211] ({CH2CO}-[3Pal][Phe(3-OMe)]DWV[Bip]V[NMeA][dL]NLVS[ξC][Dap]-OH; thioether N-14), the IC50 was found to be 0.08 µM.
Consider `CC(C)C[C@@H]1NC(=O)[C@H](CCN)NC(=O)[C@@H](CC(C)C)NC(=O)[C@H](C)N(C)C(=O)[C@H](CCCNC(=N)N)NC(=O)[C@H](Cc2ccc(-c3ccccc3)cc2)NC(=O)[C@H](C(C)C)NC(=O)[C@H](Cc2c[nH]c3ccccc23)NC(=O)[C@H](CC(=O)O)NC(=O)[C@H](Cc2ccc(O)cc2)NC(=O)[C@H](Cc2cccnc2)NC(=O)CSC[C@@H](C(=O)N[C@@H](C)C(N)=O)NC(=O)[C@H]([C@@H](C)O)NC(=O)[C@H](C(C)C)NC1=O` [Compound 1053] ({CH2CO}-[3Pal]YDWV[Bip]R[NMeA][dL][Dab]LVTCA-NH2; thioether N-14), for which the IC50 amounted to 0.12 µM.
Regarding `CC(C)C[C@H]1NC(=O)[C@H](C)N(C)C(=O)[C@H](CCC(=O)O)NC(=O)[C@H](Cc2ccc(-c3ccccc3)cc2)NC(=O)[C@H](C(C)C)NC(=O)[C@H](Cc2c[nH]c3ccccc23)NC(=O)[C@H](CC(=O)O)NC(=O)[C@H](Cc2ccc(OCC(=O)O)cc2)NC(=O)[C@H](CC(N)=O)NC(=O)CSC[C@@H](C(=O)NCC(N)=O)NC(=O)[C@H](C(C)O)NC(=O)[C@H](C(C)C)NC(=O)[C@H](CC2CCCCC2)NC(=O)[C@H](CCN)NC1=O` (stereo partly drawn) [Compound 2085] ({CH2CO}-NY(Carboxymethyl)DWV[Bip]E[NMeA][dL][Dab][Cha]V[Thr(3ξ)]CG-NH2; thioether N-14), the IC50 was 0.01 µM.
Take `CC(C)C[C@@H]1NC(=O)[C@H](CCN)NC(=O)[C@@H](CC(C)C)NC(=O)[C@H](C)N(C)C(=O)[C@H](CCCN)NC(=O)[C@H](Cc2ccc(-c3ccccc3)cc2)NC(=O)[C@H](C(C)C)NC(=O)[C@H](Cc2c[nH]c3ccccc23)NC(=O)[C@H](CC(=O)O)NC(=O)[C@H](Cc2ccc(O)cc2)NC(=O)[C@H](CC(N)=O)NC(=O)CSC[C@@H](C(=O)N[C@@H](C)C(N)=O)NC(=O)[C@H]([C@@H](C)O)NC(=O)[C@H](C(C)C)NC1=O` [Compound 1266] ({CH2CO}-NYDWV[Bip][Orn][NMeA][dL][Dab]LVTCA-NH2; thioether N-14): the IC50 was 0.03 µM.
On to `Cc1cccc(C[C@@H]2NC(=O)[C@H](CC(=O)O)NC(=O)[C@H](Cc3ccc(OCC(=O)O)cc3)NC(=O)[C@H](Cc3ccc(OCC(=O)O)cc3)NC(=O)CSC[C@@H](C(N)=O)NC(=O)[C@H](CCC(=O)O)NC(=O)[C@H](C(C)C)NC(=O)[C@H](CC3CCCCC3)NC(=O)[C@H](CCN)NC(=O)[C@@H](CC(C)C)NC(=O)[C@H](C)N(C)C(=O)[C@H](Cc3ccc(OCC(=O)O)cc3)NC(=O)[C@H](Cc3ccc(-c4ccccc4)cc3)NC(=O)[C@H](Cc3ccc(OCC(=O)O)cc3)NC2=O)c1` [Compound 1657] ({CH2CO}-Y(Carboxymethyl)Y(Carboxymethyl)D[Phe(3-Me)]Y(Carboxymethyl)[Bip]Y(Carboxymethyl)[NMeA][dL][Dab][Cha]VEC-NH2; thioether N-14), for which the concentration for half-maximal inhibition (IC50) came out at 0.05 µM.
On to `CC(C)C[C@@H]1NC(=O)[C@H](CCN)NC(=O)[C@@H](CC(C)C)NC(=O)[C@H](C)N(C)C(=O)[C@H](CCCNC(=N)N)NC(=O)[C@H](Cc2ccc(-c3ccccc3)cc2)NC(=O)[C@H](C(C)C)NC(=O)[C@H](Cc2c[nH]c3ccccc23)NC(=O)[C@H](CC(=O)O)NC(=O)[C@H](CCc2ccccc2)NC(=O)[C@H](CC(N)=O)NC(=O)CSC[C@@H](C(=O)N[C@@H](C)C(N)=O)NC(=O)[C@H]([C@@H](C)O)NC(=O)[C@H](C(C)C)NC1=O` [Compound 1353] ({CH2CO}-N[hPhe]DWV[Bip]R[NMeA][dL][Dab]LVTCA-NH2; thioether N-14), for which the concentration for half-maximal inhibition (IC50) worked out at 0.03 µM.
Still for that read-out and setting: next, `Cc1cccc(C[C@@H]2NC(=O)[C@H](CC(=O)O)NC(=O)[C@H](Cc3ccc(C(=O)O)cc3)NC(=O)[C@H](Cc3ccc(OCC(=O)O)cc3)NC(=O)CSC[C@@H](C(=O)N[C@@H](C)C(N)=O)NC(=O)[C@H](CO)NC(=O)[C@H](C(C)C)NC(=O)[C@H](CC(C)C)NC(=O)[C@H](CC(N)=O)NC(=O)[C@@H](C)NC(=O)[C@H](C)N(C)C(=O)[C@H](C(C)C)NC(=O)[C@H](Cc3ccc(-c4ccccc4)cc3)NC(=O)[C@H](CC(C)C)NC2=O)c1` [Compound 1579] ({CH2CO}-Y(Carboxymethyl)[Phe(4-COOH)]D[Phe(3-Me)]L[Bip]V[NMeA][dA]NLVSCA-NH2; thioether N-14): 0.02 µM.
Regarding `CCC(C)[C@@H]1NC(=O)[C@H](Cc2ccc(-c3ccccc3)cc2)NC(=O)[C@H](C(C)C)NC(=O)[C@H](Cc2c[nH]c3ccccc23)NC(=O)[C@H](CC(N)=O)NC(=O)[C@H](Cc2ccc(-c3cccc(C(=O)O)c3)cc2)NC(=O)[C@H](Cc2ccncc2)NC(=O)CSC[C@@H](C(=O)N[C@@H](C)C(=O)N[C@@H](CCCCN)C(N)=O)NC(=O)[C@H](C(C)O)NC(=O)[C@H](C(C)C)NC(=O)C(CC2CCCCC2)NC(=O)[C@H](CC(N)=O)NC(=O)[C@@H](CC(C)C)NC(=O)[C@H](C)N(C)C1=O` (stereo partly drawn) [Compound 2019] ({CH2CO}-[4Pal][Bip(3'-COOH)]NWV[Bip][Ile(3ξ)][NMeA][dL]N[ξCha]V[Thr(3ξ)]CAK-NH2; thioether N-14), the IC50 is 0.28 µM.
